Measured values: US8916551B2, “Heterocyclic compound and use thereof” (Takeda Pharmaceutical Company Limited, priority 2010, dated 2014)

Assays:
[1] = molecular target: T1, AMPA receptor (human GluR1 flip/stargazin expressed in CHO-K1 cells) (Homo sapiens, UniProt P42261); experiment: AMPA receptor function enhancing activity using calcium influx as index; type: cell-based; conditions: 100% = 3 mM glutamic acid + 300 μM cyclothiazide, 0% = 3 mM glutamic acid only
T1 construct: expressed in transfected cells; host or cells: CHO-K1
T1 sequence (P42261 19-906 isoform P42261-2 limits assumed): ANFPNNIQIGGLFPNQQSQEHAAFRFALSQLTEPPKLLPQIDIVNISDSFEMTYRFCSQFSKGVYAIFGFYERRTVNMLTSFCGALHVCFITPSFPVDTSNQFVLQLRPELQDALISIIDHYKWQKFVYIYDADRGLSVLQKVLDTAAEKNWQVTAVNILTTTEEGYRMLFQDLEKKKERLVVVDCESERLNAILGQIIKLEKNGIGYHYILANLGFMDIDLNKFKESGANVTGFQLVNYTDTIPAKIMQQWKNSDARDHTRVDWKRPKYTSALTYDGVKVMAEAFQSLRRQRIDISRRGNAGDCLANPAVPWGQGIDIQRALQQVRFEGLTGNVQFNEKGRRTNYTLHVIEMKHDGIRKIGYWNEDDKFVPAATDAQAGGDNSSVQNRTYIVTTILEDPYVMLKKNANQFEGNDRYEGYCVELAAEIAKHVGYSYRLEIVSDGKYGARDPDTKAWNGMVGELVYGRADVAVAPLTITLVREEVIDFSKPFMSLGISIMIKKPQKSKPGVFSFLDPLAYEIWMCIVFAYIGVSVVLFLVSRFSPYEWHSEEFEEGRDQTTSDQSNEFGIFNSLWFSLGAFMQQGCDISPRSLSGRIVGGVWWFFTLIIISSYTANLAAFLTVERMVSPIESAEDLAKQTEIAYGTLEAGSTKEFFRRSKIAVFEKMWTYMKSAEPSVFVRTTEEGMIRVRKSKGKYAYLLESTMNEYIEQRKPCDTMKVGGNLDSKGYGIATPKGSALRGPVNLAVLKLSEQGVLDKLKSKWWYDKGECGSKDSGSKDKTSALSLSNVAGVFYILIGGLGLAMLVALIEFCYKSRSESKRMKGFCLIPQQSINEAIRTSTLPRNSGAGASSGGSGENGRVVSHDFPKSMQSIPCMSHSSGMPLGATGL
T1 sequence (Q9Y698 whole entry partner): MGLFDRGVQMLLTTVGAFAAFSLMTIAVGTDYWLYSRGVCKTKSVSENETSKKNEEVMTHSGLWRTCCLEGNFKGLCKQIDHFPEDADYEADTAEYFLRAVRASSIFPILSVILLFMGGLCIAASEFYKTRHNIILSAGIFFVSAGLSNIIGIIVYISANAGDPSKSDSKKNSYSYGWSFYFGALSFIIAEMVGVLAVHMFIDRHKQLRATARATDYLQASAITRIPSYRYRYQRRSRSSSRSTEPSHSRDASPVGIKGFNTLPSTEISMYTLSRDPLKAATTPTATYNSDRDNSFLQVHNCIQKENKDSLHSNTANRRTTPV
Procedure, shortened: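 CHO-K1 clone stably co-expressing human GluR1 flip and stargazin, loaded with Calcium 4 dye plus probenecid. Compound at 30 μM was added with glutamate (3 mM final) and fluorescence change followed over 3 min. Activity is expressed as % of the 3 mM glutamate plus 300 μM cyclothiazide response, with glutamate alone as 0%.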

[2] = test compound 30 μM with glutamic acid final 3 mM, change in fluorescence in 3 min
[3] = test compound 30 μM with 3 mM glutamic acid, change in fluorescence level in 3 min

Structure (SMILES)	activity (%) [1, 2] [%]	melting point [°C]	activity (%) [1, 3] [%]
O=S1(=O)CCN2C=CC=C(c3ccc(OCC4CCOCC4)cc3)C2=N1 [Example 69, 9-[4-(tetrahydro-2H-pyran-4-ylmethoxy)phenyl]-3,4-dihydropyrido[2,1-c][1,2,4]thiadiazine 2,2-dioxide]	71	268 to 269	
O=S1(=O)CCN2C=C(Cl)C=C(c3ccc(OC4CCCCC4)cc3)C2=N1 [Example 73, 7-chloro-9-[4-(cyclohexyloxy)phenyl]-3,4-dihydropyrido[2,1-c][1,2,4]thiadiazine 2,2-dioxide]	75	284 to 287	
O=S1(=O)CCN2C=CC=C(c3ccc(OCC4CCCO4)cc3)C2=N1 (centres unmarked) [Example 75, 9-[4-(tetrahydrofuran-2-ylmethoxy)phenyl]-3,4-dihydropyrido[2,1-c][1,2,4]thiadiazine 2,2-dioxide]	81	222 to 223	
O=S1(=O)CCN2C=C(Cl)C=C(c3ccc(Oc4ncccc4C(F)(F)F)cc3)C2=N1 [Example 78, 7-chloro-9-(4-{[3-(trifluoromethyl)pyridin-2-yl]oxy}phenyl)-3,4-dihydropyrido[2,1-c][1,2,4]thiadiazine 2,2-dioxide]	72	264 to 265	
O=S1(=O)CCN2C=C(Cl)C=C(c3ccc(Oc4ccnc(C(F)(F)F)c4)cc3)C2=N1 [Example 79, 7-chloro-9-(4-{[2-(trifluoromethyl)pyridin-4-yl]oxy}phenyl)-3,4-dihydropyrido[2,1-c][1,2,4]thiadiazine 2,2-dioxide]	90	239 to 240	
O=S1(=O)CCN2C=C(Cl)C=C(c3ccc(Oc4ccccc4)cc3)C2=N1 [Example 81, 7-chloro-9-(4-phenoxyphenyl)-3,4-dihydropyrido[2,1-c][1,2,4]thiadiazine 2,2-dioxide]	86	248 to 249	
Cc1ccc(Oc2ccc(C3=CC=CN4CCS(=O)(=O)N=C34)cc2)cc1 [Example 107, 9-[4-(4-methylphenoxy)phenyl]-3,4-dihydropyrido[2,1-c][1,2,4]thiadiazine 2,2-dioxide]	69	248 to 249	
O=S1(=O)CCN2CCCC(c3ccc(Oc4ccc(C(F)(F)F)cc4)cc3)C2=N1 (centres unmarked) [Example 125, 9-{4-[4-(trifluoromethyl)phenoxy]phenyl}-3,4,6,7,8,9-hexahydropyrido[2,1-c][1,2,4]thiadiazine 2,2-dioxide]	53	191 to 193	
Cc1ccc(C(F)(F)c2ccc(C3CCCN4CCS(=O)(=O)N=C34)cc2)cc1 (centres unmarked) [Example 137, 9-{4-[difluoro(4-methylphenyl)methyl]phenyl}-3,4,6,7,8,9-hexahydropyrido[2,1-c][1,2,4]thiadiazine 2,2-dioxide]	61	190 to 191	
Cc1cc(F)ccc1Oc1ccc(C2=CC=CN3CCS(=O)(=O)N=C23)cc1 [Example 143, 9-[4-(4-fluoro-2-methylphenoxy)phenyl]-3,4-dihydropyrido[2,1-c][1,2,4]thiadiazine 2,2-dioxide]		240 to 242	76
O=S1(=O)CCN2C=CC=C(c3ccc(Oc4ccc(Cl)cc4)cc3)C2=N1 [Example 147, 9-[4-(4-chlorophenoxy)phenyl]-3,4-dihydropyrido[2,1-c][1,2,4]thiadiazine 2,2-dioxide]		232 to 234	70
O=S1(=O)CCN2CCCC(c3ccc(Oc4ccc(Cl)cc4)cc3)C2=N1 (centres unmarked) [Example 148, 9-[4-(4-chlorophenoxy)phenyl]-3,4,6,7,8,9-hexahydropyrido[2,1-c][1,2,4]thiadiazine 2,2-dioxide]		215 to 216	73
O=S1(=O)CCN2CCCC(c3ccc(Oc4ccc(Cl)c(Cl)c4)cc3)C2=N1 (centres unmarked) [Example 151, 9-[4-(3,4-dichlorophenoxy)phenyl]-3,4,6,7,8,9-hexahydropyrido[2,1-c][1,2,4]thiadiazine 2,2-dioxide]		195 to 197	67
